From ChEMBL document CHEMBL1201862, “PubChem BioAssay data set” (2004) come the findings set out here.

Some test systems named below: K562; UACC-62; SN12C; CAKI-1; NCI-H460; HCT-15; SW-620; KM12; T47D; A549; LOX IMVI; MCF7; TK-10; HOP-92; BT-549; PC-3; SR; ACHN; SF-268; NCI-H522.
What all share (test): growth of human tumour cells (NCI), 48 h

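Five concentrations, 48 hours, 96-well plates. GI50 is the concentration that inhibits growth by half.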 Activity calls are given as the source filed them. No stated cut-off is given here; in the data, active = GI50 up to about 1.1 µM and inactive = higher.

With `NC(CC1=CCC=CC1)C(=O)O` (configuration not stated), the GI50 in the assay with K562 is 28.9 µM (inactive); in the assay with UACC-62, > 100 µM (inactive); with SN12C, > 100 µM (inactive); with CAKI-1 it was > 100 µM (inactive); in the assay with NCI-H460 it was 59.3 µM (inactive); in the assay with HCT-15, 57.9 µM. Also, the GI50 was > 100 µM (inactive) with SW-620; 68.2 µM (inactive) with KM12; > 100 µM (inactive) with T47D; 74.5 µM (inactive) in the assay on A549; 91.8 µM (inactive) in the assay on LOX IMVI; 47.4 µM (inactive) in the assay with MCF7. Further, the GI50 in the assay on TK-10 is > 100 µM (inactive); in the assay with HOP-92, > 100 µM (inactive); in the assay on BT-549, > 100 µM (inactive); in the assay on PC-3, 45.7 µM (inactive); in the assay with SR it was > 10 µM (inactive); with ACHN, > 100 µM (inactive). The GI50 with SF-268 is > 100 µM (inactive).
Consider `CC(=O)OCC1OC(Nn2c(=O)[nH]c3ccccc3c2=O)C(OC(C)=O)C(OC(C)=O)C1OC(C)=O` (configuration not stated), for which the GI50 with K562 was > 100 µM (inactive); in the assay with UACC-62, > 100 µM (inactive); in the assay on SN12C it was > 100 µM (inactive); in the assay with CAKI-1, > 100 µM (inactive); in the assay with NCI-H460, 27.2 µM (inactive); with HCT-15, > 100 µM. Besides, the GI50 in the assay on SW-620 was > 100 µM (inactive); in the assay with NCI-H522 it was > 100 µM (inactive); in the assay on KM12 it was > 100 µM (inactive); in the assay on T47D, 35.5 µM (inactive); in the assay on A549 it was > 100 µM (inactive); in the assay with LOX IMVI, > 100 µM (inactive). The GI50 in the assay on MCF7 is > 100 µM (inactive); in the assay on HOP-92, 89.1 µM (inactive); in the assay on BT-549 it was > 100 µM (inactive); with PC-3 it was > 100 µM (inactive); in the assay on SR, > 100 µM (inactive); in the assay with ACHN it was > 100 µM (inactive). The GI50 with SF-268 is > 100 µM (inactive).
Regarding `CN(C)C(=N)/N=C(\N)Nc1cccc(Cl)c1`, the GI50 in the assay with K562 was > 100 µM (inactive); with UACC-62 it was 89.1 µM (inactive); in the assay on SN12C, 98.6 µM (inactive); in the assay with CAKI-1, 48.2 µM (inactive); with NCI-H460, 91.6 µM (inactive); in the assay with HCT-15, > 100 µM. Also, the GI50 is > 100 µM (inactive) in the assay on SW-620; > 100 µM (inactive) in the assay with KM12; 24.8 µM (inactive) in the assay on T47D; > 100 µM (inactive) with A549; 35.9 µM (inactive) with LOX IMVI; 90.8 µM (inactive) with MCF7. In addition, the GI50 is > 100 µM (inactive) in the assay on TK-10; 19.5 µM (inactive) in the assay on BT-549; 41.8 µM (inactive) in the assay on PC-3; 53.2 µM (inactive) with SR; 55.5 µM (inactive) in the assay on ACHN; 35.4 µM (inactive) in the assay with SF-268.
Consider `CCOP(=O)(OCC)C(C(=O)OC)C(=O)C(=O)Nc1cccc(O)c1` (configuration not stated), for which the GI50 is > 100 µM (inactive) in the assay with UACC-62; > 100 µM (inactive) in the assay with SN12C; > 100 µM (inactive) with CAKI-1; > 100 µM (inactive) in the assay on NCI-H460; > 100 µM with HCT-15; > 100 µM (inactive) with SW-620. The GI50 in the assay with NCI-H522, with KM12, in the assay with T47D, in the assay on A549, with LOX IMVI and in the assay on MCF7 was > 100 µM (inactive) throughout. For the same molecule, the GI50 in the assay on TK-10, in the assay on HOP-92, with BT-549, in the assay on PC-3, with SR and in the assay on ACHN was > 100 µM (inactive) throughout. Moreover, the GI50 in the assay with SF-268 was > 100 µM (inactive).
For the molecule `CCN(CC)CCN(/C(=N/c1ccccc1)N1CCOCC1)c1ccccc1`, the GI50 in the assay with K562 is > 100 µM (inactive); with UACC-62, > 100 µM (inactive); in the assay with SN12C, > 100 µM (inactive); in the assay with CAKI-1 it was > 100 µM (inactive); in the assay on NCI-H460, > 100 µM (inactive); in the assay with HCT-15 it was > 100 µM. The GI50 with SW-620 was > 100 µM (inactive); with NCI-H522, > 100 µM (inactive); in the assay on KM12, > 100 µM (inactive); with T47D it was > 100 µM (inactive); in the assay on A549, > 100 µM (inactive); in the assay on LOX IMVI, 44.6 µM (inactive). For the same molecule, the GI50 in the assay on MCF7 was 89.3 µM (inactive); with TK-10, > 100 µM (inactive); in the assay on BT-549, > 100 µM (inactive); with PC-3, > 100 µM (inactive); with SR, 50.6 µM (inactive); in the assay on SF-268, > 100 µM (inactive).
With `COc1cc2ccc1OCc1cccc(n1)COc1ccc(cc1OC)/C=N\CCNCC/N=C\2`, the GI50 is > 100 µM (inactive) in the assay with K562; > 100 µM (inactive) with SN12C; > 100 µM (inactive) in the assay on CAKI-1; > 100 µM (inactive) in the assay on NCI-H460; > 100 µM with HCT-15; > 100 µM (inactive) in the assay on SW-620. Further, the GI50 was 34.4 µM (inactive) in the assay on NCI-H522; 65.8 µM (inactive) in the assay on T47D; > 100 µM (inactive) in the assay with A549; > 100 µM (inactive) in the assay with LOX IMVI; > 100 µM (inactive) in the assay with MCF7; > 100 µM (inactive) in the assay on TK-10. Moreover, the GI50 is 48.4 µM (inactive) with HOP-92; 42.5 µM (inactive) with BT-549; > 100 µM (inactive) in the assay on PC-3; > 100 µM (inactive) with SR; > 100 µM (inactive) in the assay with ACHN; 80.9 µM (inactive) with SF-268.
Consider `CCc1cccc(C(C)(C)C)c1NC(=S)N/C=C(/C#N)C(N)=O`, for which the GI50 in the assay with K562 was > 100 µM (inactive); in the assay on UACC-62, > 100 µM (inactive); in the assay on SN12C, > 100 µM (inactive); in the assay on CAKI-1, > 100 µM (inactive); in the assay with NCI-H460, > 100 µM (inactive); in the assay on HCT-15, 62.4 µM. For the same molecule, the GI50 in the assay on SW-620 is > 100 µM (inactive); with NCI-H522 it was > 100 µM (inactive); with KM12, > 100 µM (inactive); with T47D, 95.5 µM (inactive); in the assay with A549, > 100 µM (inactive); in the assay on LOX IMVI, > 100 µM (inactive). Further, the GI50 in the assay with MCF7 is > 100 µM (inactive); with HOP-92, 14 µM (inactive); in the assay on BT-549 it was 44.8 µM (inactive); with PC-3 it was > 100 µM (inactive); in the assay on SR, > 10 µM (inactive); in the assay on ACHN it was > 100 µM (inactive). Further, in the assay on SF-268, the GI50 was > 100 µM (inactive).
Turning to `CN(C)/C=N\c1nncc2[nH]nnc12`, the GI50 in the assay with K562 is > 100 µM (inactive); in the assay on UACC-62, > 100 µM (inactive); with SN12C, > 100 µM (inactive); in the assay with CAKI-1 it was > 100 µM (inactive); in the assay on NCI-H460, > 100 µM (inactive); in the assay on HCT-15, > 100 µM. The GI50 in the assay with SW-620, in the assay on KM12, with T47D, with A549, in the assay on MCF7 and with TK-10 was > 100 µM (inactive) throughout. The GI50 in the assay on BT-549, with PC-3, in the assay with SR, in the assay with ACHN and with SF-268 was > 100 µM (inactive) throughout.
In the case of `CC(=O)OCCc1cc2ccccc2oc1=O`, the GI50 with K562 was > 100 µM (inactive); in the assay on UACC-62 it was > 100 µM (inactive); in the assay with SN12C it was > 100 µM (inactive); with CAKI-1, > 100 µM (inactive); in the assay with NCI-H460, > 100 µM (inactive); in the assay on HCT-15 it was > 100 µM. Further, the GI50 with SW-620, in the assay with NCI-H522, in the assay on KM12, in the assay with T47D, with A549 and with LOX IMVI was > 100 µM (inactive) throughout. For the same molecule, the GI50 with MCF7, in the assay with HOP-92, in the assay with BT-549, with PC-3, with SR and in the assay on ACHN was > 100 µM (inactive) each time. Further, the GI50 in the assay with SF-268 was > 100 µM (inactive).
As for `C#CCn1c(=O)ccn(/C(=C\C(=O)OCC)C(=O)OCC)c1=O`, the GI50 was 3.54 µM (inactive) in the assay on K562; 14.2 µM (inactive) with UACC-62; 8.89 µM (inactive) with SN12C; 1.03 µM (active) in the assay on CAKI-1; 2.63 µM (inactive) in the assay with NCI-H460; 1.51 µM with HCT-15. For the same molecule, the GI50 was 1.68 µM (inactive) in the assay with SW-620; 22.8 µM (inactive) in the assay with KM12; 3.52 µM (inactive) with T47D; 22.8 µM (inactive) in the assay on A549; 12.2 µM (inactive) in the assay with LOX IMVI; 2.87 µM (inactive) with MCF7. Also, the GI50 in the assay on TK-10 is 1.81 µM (inactive); in the assay with HOP-92, 2.16 µM (inactive); with BT-549, 12.4 µM (inactive); in the assay on PC-3, 15 µM (inactive); in the assay with SR it was 5.02 µM (inactive); in the assay on ACHN, 1.64 µM (inactive). Also, in the assay on SF-268, the GI50 is 19.9 µM (inactive).
As to `Cc1c2c3cc(O)ccc3nc-2n(C)c2ccccc12`, the GI50 in the assay with K562 is 0.818 µM (active); with UACC-62 it was 1.39 µM (inactive); in the assay with SN12C it was 0.875 µM (active); in the assay with NCI-H460, 0.434 µM (active); in the assay with HCT-15, 1.81 µM; in the assay with SW-620, 0.497 µM (active). For the same molecule, the GI50 in the assay on KM12 is 1.69 µM (inactive); in the assay with T47D it was 2.68 µM (inactive); in the assay with A549, 0.938 µM (active); with MCF7, 2.21 µM (inactive); in the assay with TK-10, 2.98 µM (inactive); in the assay on HOP-92, 1.93 µM (inactive). Further, the GI50 in the assay with BT-549 was 1.92 µM (inactive); in the assay with PC-3, 1.75 µM (inactive); in the assay with SR, 0.782 µM (active); in the assay with ACHN, 0.479 µM (active); in the assay on SF-268, 1.62 µM (inactive).
